The values below are quoted from earlier work in patent US6083980A, “Furanyl, tetracyclic triterpene derivatives with immunosuppressant activity” (Merck & Co., Inc., priority 1998, dated 2000).

The data set deals with Kv 1.3 channels (CHO cells transfected with Kv 1.3 channels). The note with it: stated for the reference blocker used to establish the efflux window.

pIC50: −log10 of the molar value.

For “margatoxin (TIINVKCTSPKQCLPPCKAQFGQSAGAKCMNGKCKCYPH; UniProt P40755 1-39, looked up)”, the pIC50 was 10.00.
